Assay results as given in patent publication US9205174B2, “Bone graft substitute in the form of an implantable three-dimensional scaffold and method of manufacturing same” (Mathys AG Bettlach, priority 2010, dated 2015).

Experiments:
[1] = for expected (added) amount beyond which additional salt does not load the block / loading efficiency drastically decreases: 0.50 g/mL solution, 14×14 mm β-TCP cylinder, dried at 95° C.
Experimental: A 2^2 factorial design of experiments with three repeats was performed with the following factors: Factor A: CaCl2 concentration (0.25 or 0.50 g/mL); Factor B: Liquid amount (3.5 or 7.0 mL). Each of the 14×14 mm cylinders was placed standing in a snap cap flask.
The solution was then slowly added to allow impregnation through capillarity. The cylinder top was always protruding out of the solution. The samples were then inserted into the drying cupboard tempered at 60° C. The ventilation of the drying cupboard was set at its maximum.
The weight of the flask+solution+samples was measured at regular interval to determine the point at which constant weight was reached. […] Therefore, these 9 samples were removed from the flask and the weight was determined without flask. The 3 samples made with 7 mL 0.50 g/mL solution were kept for a longer time. The drying temperature was increased to 80° C.
Each of the 14×14 mm cylinders was placed standing in a snap cap flask. The solution was then slowly injected at the bottom of the snap-cap flask to allow impregnation through capillarity. 6 different volumes were injected: 1.8, 2.7, 3.6, 4.5, 5.6 and 6.3 mL.
Two cylinders were prepared for each solution volume. The cylinder top was always protruding out of the solution. The samples were then inserted into the drying cupboard tempered at 95° C. The ventilation of the drying cupboard was set at its maximum.
The weight of the flask+solution+samples was measured at regular interval to determine the point at which constant weight was reached. The sample weight was determined to assess how much di-potassium hydrogen phosphate was present in the block pores.
Each of the 14×14 mm cylinders was placed standing in a snap cap flask. The solution (kept at 95° C.) was then slowly injected at the bottom of the snap-cap flask to allow impregnation through capillarity. […]
The weight of the flask+solution+samples was measured at regular interval to determine the point at which constant weight was reached. […] The sample weight was determined to assess how much di-potassium hydrogen phosphate was present in the block pores.

[2] = Release test of loaded β-TCP blocks in 1 L deionized water, weight loss after drying; assay type: physicochemical; conditions: for dissolution rate DRD relative to dissolution rate DRS of β-TCP: from weight losses; for release rate (in words): from loaded β-TCP blocks in 1 L deionized water; for amount released: 50 RPM
Experimental: (§1) Each sample was then placed into a small porous cage produced by joining together two BD Falcon filters (Mesh size: 70 micrometers). The cage was lowered into a 1 L deionized water. Stirring was performed with a large magnetic bar (6 cm in length) at 50 RPM. The samples were removed from the solution after 1 h or 3 h (1 sample per time and per composition). The samples were then dried at 95° C. and weighed to determine the amount of Na2HPO4.2H2O released during the test.
as §1, with “after 10 min,” for “after”, “or 6” for “or 3”, “(1 samples” for “(1 sample”, “of CaCl2” for “of Na2HPO4.2H2O”, “the incubation.” for “the test.”

## O=P([O-])([O-])O.[K+].[K+] [K2HPO4, di-potassium hydrogen phosphate]
[1]
  expected (added) amount beyond which additional salt does not load the block / loading efficiency drastically decreases: ≈ 2.5 g

## O=P([O-])([O-])O.[Na+].[Na+] [Na2HPO4.2H2O, di-sodium hydrogen phosphate]
[1]
  expected (added) amount beyond which additional salt does not load the block / loading efficiency drastically decreases: ~1.35 g
[2]; deionized water
  dissolution rate DRD relative to dissolution rate DRS of β-TCP: two order of magnitude larger
[2]
  release rate (in words): relatively slowly

## [Ca+2].[Cl-].[Cl-] [calcium chloride]
[1]; Example 1, porous β-TCP blocks, 7 mL of 0.25 g/mL or 3.5 mL of 0.50 g/mL solution, dried at 60° C.
  loading efficiency: ~84%
[2]; Example 4, after 1 h, deionized water
  amount released: 80-85%
[2]; Example 4, at 6 h, deionized water
  state of samples after release: free of calcium chloride
[2]; Example 4, within 10 minutes, deionized water
  amount released: roughly 50%
[2]; deionized water
  dissolution rate DRD relative to dissolution rate DRS of β-TCP: more than 100 times
[2]
  release rate (in words): very fast
